Experimental data taken from PMC12210912, “Pharmacologic properties and inhibitory activity of 6-azasteroids against Mycobacterium leprae in vivo and in vitro” (Microbiology Spectrum, 2025).

How the values were obtained:
hERG channel = molecular target: T1, hERG channel (Homo sapiens, UniProt Q12809); assay: hERG potassium channel current inhibition, whole-cell patch clamp; format: cell-based; settings: hERG-expressing HEK 293 cells, whole-cell recording, 25 °C
T1 construct: host or cells: HEK 293
Protocol: Inhibition of human ether-a-go-go-related gene (hERG) potassium channel current was carried out following a standard protocol by Pharmaron, Inc. hERG stably expressed HEK 293 cell line (Cat# K1236) was purchased from Invitrogen (Thermo Fisher Scientific, USA). The cells are cultured in 90% DMEM, 10% dialyzed FBS, 0.1 mM NEAA, 25 mM HEPES, 100 U/mL Penicillin-Streptomycin, 5 µg/mL Blasticidin, and 400 µg/mL Geneticin. Cells are split using TrypLE Express about three times a week and maintained between ~40% and ~80% confluence. Before the assay, the cells were plated onto the coverslips at 5 × 10^5 cells/6 cm cell culture dish and induced with doxycycline at 1 µg/mL for 48 h. Test compound was initially prepared in DMSO with final concentration of 30 mM as stock solution. Then stock solution of test compound was serial-diluted by ratio of 1:3 with DMSO to prepare additional four intermedial solutions including 10, 3.33, 1.11, 0.37 mM, respectively. […] 5 doses were challenged to the patched cells for IC50 determination.
The voltage-gated hERG potassium channel current was recorded at room temperature (25 °C) from randomly selected transfected cells using whole-cell recording technique with a Multiclamp 700B amplifier (Molecular Devices, US) and an EPC10 microamplifier (HEKA, USA). Extracellular solution (in mM): 132 NaCl, 4 KCl, 3 CaCl2, 0.5 MgCl2, 11.1 glucose, and 10 HEPES (pH adjusted to 7.35 with NaOH). Intracellular solution (in mM): 70 KF, 60 KCl, 15 NaCl, 5 EGTA, and 5 HEPES (pH adjusted to 7.35 with KOH).
The holding potential was set to −90 mV for 1 s; recording current at 50 kHz and filter at 10 kHz. Leaking current was tested at −80 mV for 500 ms. […] The current was recorded for 120 s to assess the current stability. […] After allowing the current to stabilize for 3 min, compound was applied. hERG current in the presence of test compound were recorded for approximately 5 min to reach steady state and then five sweeps were captured. […] Percent current inhibition was calculated using the following equation. […]

M. leprae 3β-HSD = assay: cholestenone production by M. leprae in axenic medium (TLC); format: cell-based; settings: Mycobacterium leprae, TLC densitometry, σ printed in brackets
[1] = compound plasma concentration in Balb/c mice by LC-MS; format: in vivo; settings: 50 mg/kg; for plasma level at the end of the experiment with infected mice: Balb/c mice, 6 h after last dose, alone or with rifampicin
Protocol: Animal experimentation was conducted under approval by the ILSL ethical committee (CEUA ILSL 02/19). Balb/c female mice with 8-week-old were inoculated with 5 × 10^3 live M. leprae bacilli, strain Thai-53, in both hind footpads, as previously described for the Shepard’s model ([25]). Eight groups were tested in the experiment: (i) M. leprae control group (n = 5) inoculated with M. leprae and no additional treatment; (ii) vehicle control group (n = 4) inoculated with M. leprae and treatment with vehicle of the drugs; (iii) regular rifampicin treatment, 10 mg/Kg dose; (iv) sub-inhibitory rifampicin, 1 mg/kg dose (n = 5); (v) compound 2 treatment (n = 4), 50 mg/kg dose; (vi) compound 2 with sub-inhibitory rifampicin (n = 5), 50 mg/kg dose of compound 2 and 1 mg/kg dose of rifampicin; (vii) compound 5 treatment (n = 5), 50 mg/kg dose; and (viii) compound 5 with sub-inhibitory rifampicin (n = 5), 50 mg/kg dose of compound 5 and 1 mg/kg dose of rifampicin. One month after inoculation, mice from the control group were euthanized and the hind footpad was collected to assess the establishment of the infection by bacillary enumeration. At that time point, vehicle or drug treatment was started for the remaining groups. All compounds were administrated by gavage, rifampicin was administered weekly, and the compounds were administered daily (excluding weekends) for 1 month (20 doses). Mice were euthanized 6 h after administration of the last dose, and blood was collected in heparin-coated tubes by cardiac puncture for blood enzyme evaluation and compound 5 measurement by LC/MS in the plasma. The infected hind footpads from each group of mice were excised, homogenized and bacilli enumerated in a 100 µL aliquot as previously described ([26]). […]
Uninfected Balb/c female mice (n = 36), approximately 8 weeks old and 20 g, were divided into three groups. […] Concentrations of compound 5 in plasma were determined by LC/MS.
Compound 5 quantification in the plasma was performed on lipid extracts from plasma samples. […]

T1 sequence (Q12809 whole entry): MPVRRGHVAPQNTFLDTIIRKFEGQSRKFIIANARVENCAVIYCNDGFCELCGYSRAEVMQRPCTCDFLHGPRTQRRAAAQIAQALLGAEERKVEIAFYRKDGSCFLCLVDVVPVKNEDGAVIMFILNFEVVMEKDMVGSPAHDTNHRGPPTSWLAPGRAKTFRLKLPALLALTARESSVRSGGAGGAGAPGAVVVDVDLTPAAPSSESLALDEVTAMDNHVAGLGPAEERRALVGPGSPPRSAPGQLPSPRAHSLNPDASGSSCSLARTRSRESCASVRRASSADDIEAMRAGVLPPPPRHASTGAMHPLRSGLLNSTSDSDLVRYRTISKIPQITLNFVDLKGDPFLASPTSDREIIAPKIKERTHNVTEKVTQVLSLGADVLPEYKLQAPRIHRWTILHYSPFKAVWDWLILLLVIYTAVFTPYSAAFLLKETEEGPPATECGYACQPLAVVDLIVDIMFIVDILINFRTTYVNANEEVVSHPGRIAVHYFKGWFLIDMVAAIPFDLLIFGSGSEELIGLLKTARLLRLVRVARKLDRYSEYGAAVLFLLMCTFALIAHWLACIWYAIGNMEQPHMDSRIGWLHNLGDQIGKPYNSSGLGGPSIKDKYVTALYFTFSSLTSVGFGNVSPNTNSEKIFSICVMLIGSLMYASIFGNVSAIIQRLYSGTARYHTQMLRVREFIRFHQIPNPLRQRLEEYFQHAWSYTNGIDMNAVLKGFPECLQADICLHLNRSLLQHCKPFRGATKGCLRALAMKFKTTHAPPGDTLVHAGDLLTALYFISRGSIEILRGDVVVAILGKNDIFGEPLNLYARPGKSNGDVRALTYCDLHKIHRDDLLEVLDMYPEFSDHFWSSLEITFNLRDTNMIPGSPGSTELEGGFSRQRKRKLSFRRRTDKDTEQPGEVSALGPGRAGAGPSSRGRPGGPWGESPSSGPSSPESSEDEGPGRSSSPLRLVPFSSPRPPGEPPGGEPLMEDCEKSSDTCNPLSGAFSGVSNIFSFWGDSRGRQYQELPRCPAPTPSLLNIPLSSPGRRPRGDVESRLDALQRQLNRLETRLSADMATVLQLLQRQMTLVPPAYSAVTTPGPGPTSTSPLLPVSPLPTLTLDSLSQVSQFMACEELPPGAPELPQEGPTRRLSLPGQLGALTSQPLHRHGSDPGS

| Structure (SMILES) | IC50 (hERG channel) [nM] | inhibition at 40 µM (M. leprae 3β-HSD; 40 μM) [%] | plasma level at the end of the experiment with infected mice [1] | inhibition at 100 µM (M. leprae 3β-HSD; 100 μM) [%] | plasma levels over 4 weeks, alone vs in combination with rifampicin ([1]; non-infected Balb/c mice, rifampicin 1 mg/kg, weekly time points) |
| --- | --- | --- | --- | --- | --- |
| CC(C)(C)c1ccc(C(C)(C)C)c(NC(=O)C2CCC3C4CNC5=CC(=O)CC[C@]5(C)C4CC[C@]23C)c1 (some centres unmarked) [Compound 1] | 950 |  |  |  |  |
| CCCN1CC2C3CCC(C(=O)Nc4cc(C(C)(C)C)ccc4C(C)(C)C)[C@@]3(C)CCC2[C@@]2(C)CCC(=O)C=C12 (some centres unmarked) [Compound 2] | 740 | ~38 | detectable levels |  |  |
| C[C@]12CCC3C(CNC4=CC(=O)CC[C@@]43C)C1CCC2C(=O)NC(c1ccc(F)cc1)c1ccc(F)cc1 (some centres unmarked) [Compound 5] | 3000 |  | detectable levels | ~25.1 | no significant differences |
